Laboratory results from patent US8791266B2, “Thyroid hormone β receptor agonist” (Mitsubishi Tanabe Pharma Corporation, priority 2009, dated 2014).
pEC50: −log10 of the molar value.

Assays:
[1] = molecular target: T1, Human Thyroid Hormone Receptor β1 (TRβ1) (Homo sapiens, UniProt P10828); test: Transcription activation test of human thyroid hormone receptor β1 (luciferase reporter in 293T cells); format: cell-based; conditions: EC50 of transcription activation on TRβ1, 293T cells, luciferase activity after 24 hr; read-out: TRβ
T1 construct: expressed in transfected cells; host or cells: 293T cells
T1 sequence (P10828 1-461): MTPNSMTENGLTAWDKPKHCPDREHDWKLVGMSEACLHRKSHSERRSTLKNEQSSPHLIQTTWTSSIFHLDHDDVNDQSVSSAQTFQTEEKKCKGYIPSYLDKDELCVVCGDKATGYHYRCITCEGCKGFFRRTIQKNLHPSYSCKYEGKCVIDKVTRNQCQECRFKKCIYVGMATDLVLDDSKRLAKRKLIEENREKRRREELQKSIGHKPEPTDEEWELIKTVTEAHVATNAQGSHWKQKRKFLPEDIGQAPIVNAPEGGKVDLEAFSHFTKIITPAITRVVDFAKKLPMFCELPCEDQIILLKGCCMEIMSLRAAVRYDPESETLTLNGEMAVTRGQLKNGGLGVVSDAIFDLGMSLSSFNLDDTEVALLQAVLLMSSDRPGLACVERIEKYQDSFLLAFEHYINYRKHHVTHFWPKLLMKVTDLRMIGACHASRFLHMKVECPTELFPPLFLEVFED
Text: (§1) Transcription Activation Test of Human Thyroid Hormone Receptors α1 (TRα1) and β1 (TRβ1)
(§2) pcDNA3.1 vector (manufactured by Invitrogen) that expresses TRα1 or β1 cloned from human liver-derived cells, and firefly luciferase expression vector pDR4-LuC (manufactured by Stratagene) having a thyroid hormone response sequence to be a reporter were transfected into 293T cells cultured in Dulbecco's modified Eagle medium (DMEM) containing 10% of activated carbon/dextran-treated fetal bovine serum (FBS) by using Lipofectamine2000 (manufactured by Invitrogen). After 16 hr, the cells were plated again in a 96 well plate, and the medium was exchanged with DMEM containing 0.1% activated carbon/dextran-treated FBS. After 3 more hr, a compound diluted with dimethyl sulfoxide solution was added, and the luciferase activity after 24 hr was measured.
(§3) As a positive control, 3,3′,5-triiodo-L-thyronine (T3), which is a biological ligand, was used. The transcription activation action of the compound on TRα1 and TRβ1 was shown by each EC50 value and the maximum luciferase activity value relative to the maximum luciferase activity value of T3 as 100.

[2] = molecular target: T2, Human Thyroid Hormone Receptor α1 (TRα1) (Homo sapiens, UniProt P10827); test: Transcription activation test of human thyroid hormone receptor α1 (luciferase reporter in 293T cells); format: cell-based; conditions: ratio TRα/TRβ of the transcription activation EC50 values
T2 construct: expressed in transfected cells; host or cells: 293T cells
T2 sequence (P10827 1-410 isoform P10827-2): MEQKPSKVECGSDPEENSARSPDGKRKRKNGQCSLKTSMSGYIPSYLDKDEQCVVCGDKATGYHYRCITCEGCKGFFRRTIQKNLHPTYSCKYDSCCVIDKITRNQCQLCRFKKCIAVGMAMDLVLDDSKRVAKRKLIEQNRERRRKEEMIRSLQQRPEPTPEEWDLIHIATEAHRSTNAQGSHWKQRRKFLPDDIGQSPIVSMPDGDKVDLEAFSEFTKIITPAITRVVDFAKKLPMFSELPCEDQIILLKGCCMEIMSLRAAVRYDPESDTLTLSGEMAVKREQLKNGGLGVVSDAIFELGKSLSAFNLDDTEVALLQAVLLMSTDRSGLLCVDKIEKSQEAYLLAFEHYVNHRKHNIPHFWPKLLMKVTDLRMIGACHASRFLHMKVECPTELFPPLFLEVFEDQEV
Text: as §1, §2, §3

pEC50 [1]	selectivity (TRα/TRβ) [2]	Compound
8.00	C (2>(TRα/TRβ))	COc1c(OCc2noc(=O)[nH]2)cc(C)c(Cc2ccc(O)c(C3CCCCC3)n2)c1C [Example 107, 3-({4-[(6-cyclohexyl-5-hydroxypyridin-2-yl)methyl]-2-methoxy-3,5-dimethylphenoxy}methyl)-1,2,4-oxadiazol-5(4H)-one]
8.70	B (2<(TRα/TRβ)<5)	Cc1cc(OCc2noc(=O)[nH]2)c2c(c1Cc1ccc(O)c(C3CCCCC3)n1)CCO2 [Example 117, 3-[({4-[(6-cyclohexyl-5-hydroxypyridin-2-yl)methyl]-5-methyl-2,3-dihydro-1-benzofuran-7-yl}oxy)methyl]-1,2,4-oxadiazol-5(4H)-one]
7.70	B (2<(TRα/TRβ)<5)	Cc1cc(OCc2noc(=O)[nH]2)c(F)c(C)c1Cc1ccc(O)c(N2CCCCC2)n1 [Example 118, 3-({2-fluoro-4-[(5-hydroxy-6-piperidin-1-ylpyridin-2-yl)methyl]-3,5-dimethylphenoxy}methyl)-1,2,4-oxadiazol-5(4H)-one]
8.40	A (5<(TRα/TRβ))	Cc1cc(NC(=O)CC(=O)O)c(F)c(C)c1Cc1ccc(O)c(C2CCCCCC2)n1 [Example 131, 3-({4-[(6-cycloheptyl-5-hydroxypyridin-2-yl)methyl]-2-fluoro-3,5-dimethylphenyl}amino)-3-oxopropanoic acid]
9.00	C (2>(TRα/TRβ))	Cc1cc(CC(F)C(=O)O)c(C)c(C)c1Cc1ccc(O)c(C2CCCCC2)n1 (stereo not drawn) [Example 136, 3-{4-[(6-cyclohexyl-5-hydroxypyridin-2-yl)methyl]-2,3,5-trimethylphenyl}-2-fluoropropanoic acid]
8.30	B (2<(TRα/TRβ)<5)	Cc1cc(OCC(=O)O)c2c(c1Cc1ccc(O)c(C3CCCCC3)n1)CCC2 [Example 152, ({7-[(6-cyclohexyl-5-hydroxypyridin-2-yl)methyl]-6-methyl-2,3-dihydro-1H-inden-4-yl}oxy)acetic acid]
8.70	A (5<(TRα/TRβ))	Cc1cc(OCC(=O)O)c(C)c(C)c1Cc1ccc(O)c(-c2cccc(F)c2)n1 [Example 171, {4-[6-(3-fluoro-phenyl)-5-hydroxy-pyridin-2-ylmethyl]-2,3,5-trimethyl-phenoxy}acetic acid]
9.40	A (5<(TRα/TRβ))	Cc1cc(OCC(=O)O)c(C)c(C)c1Cc1ccc(O)c(-c2cccc(Cl)c2)n1 [Example 173, (4-{[6-(3-chlorophenyl)-5-hydroxypyridin-2-yl]methyl}-2,3,5-trimethylphenoxy)acetic acid]
8.22	A (5<(TRα/TRβ))	Cc1cc(OCc2noc(=O)[nH]2)c(F)c(C)c1Cc1ccc(O)c(-c2ccc(F)c(F)c2F)n1 [Example 191, 3-{2-fluoro-4-[5-hydroxy-6-(2,3,4-trifluoro-phenyl)-pyridin-2-ylmethyl]-3,5-dimethyl-phenoxymethyl}-1,2,4-oxadiazol-5(4H)-one]
8.52	A (5<(TRα/TRβ))	Cc1cc(OCc2noc(=O)[nH]2)c(F)c(C)c1Cc1ccc(O)c(-c2cccc(N3CCCC3)c2)n1 [Example 206, 3-[(2-fluoro-4-{[5-hydroxy-6-(3-pyrrolidin-1-ylphenyl)pyridin-2-yl]methyl}-3,5-dimethylphenoxy)methyl]-1,2,4-oxadiazol-5(4H)-one]
8.40	A (5<(TRα/TRβ))	Cc1cc(-n2nc(C#N)c(=O)[nH]c2=O)cc(C)c1Cc1ccc(O)c(-c2ccccc2)n1 [Example 216, 2-{4-[(5-hydroxy-6-phenylpyridin-2-yl)methyl]-3,5-dimethylphenyl}-3,5-dioxo-2,3,4,5-tetrahydro-1,2,4-triazine-6-carbonitrile]
8.52	A (5<(TRα/TRβ))	CCCOc1cccc(-c2nc(Cc3c(C)cc(OCc4noc(=O)[nH]4)c(F)c3C)ccc2O)c1 [Example 236, 3-{2-fluoro-4-[5-hydroxy-6-(3-propoxy-phenyl)-pyridin-2-ylmethyl]-3,5-dimethyl-phenoxymethyl}-1,2,4-oxadiazol-5(4H)-one]
